This is an account of results in PubChem BioAssay (NCI).

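These data come from cells grown in 96-well plates and exposed to compound for 48 hours at five concentrations. GI50: concentration for 50% inhibition of growth. TGI: concentration producing complete growth inhibition.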

Test systems include K-562 leukemia; M14 melanoma; OVCAR-4 ovarian; SK-MEL-28 melanoma; SNB-19 CNS; U251 CNS; MALME-3M melanoma; SK-MEL-5 melanoma; SK-OV-3 ovarian.
Common to all, as to assay: NCI-60 cell line screen, 48 h

Regarding `Cc1cc(=O)n2c(cc3cccccc32)n1`, the TGI with K-562 leukemia, in the assay on M14 melanoma, in the assay with OVCAR-4 ovarian, in the assay on SK-MEL-28 melanoma, in the assay on SNB-19 CNS and with U251 CNS was over 100 µM each time.
For the compound `C[C@H]1[C@H](C)CC[C@]2(C(=O)O)CCC3(COC(=O)/C=C/c4ccc(O)cc4)C(=CCC4[C@@]5(C)CC[C@H](O)C(C)(C)C5CC[C@]43C)[C@H]12` (stereo not given in full), the TGI in the assay with K-562 leukemia is 20.9 µM; in the assay with M14 melanoma, 24.9 µM; in the assay with MALME-3M melanoma it was 37.2 µM; in the assay with OVCAR-4 ovarian it was 29.7 µM; in the assay on SK-MEL-28 melanoma it was 22.9 µM; in the assay with SK-MEL-5 melanoma, 24.4 µM. In addition, the TGI in the assay with SK-OV-3 ovarian was 6.99 µM; with SNB-19 CNS, 22.5 µM; in the assay with U251 CNS, 9.92 µM.
On to `O=C(CCN1CCCC1)Nc1ccc2c(Nc3ccc(Br)cc3)c3ccccc3nc2c1`, for which the GI50 is 1.62 µM in the assay with MALME-3M melanoma; 1.51 µM in the assay on OVCAR-4 ovarian; 1.63 µM in the assay with SK-MEL-28 melanoma; 1.57 µM in the assay on SK-MEL-5 melanoma; 1.44 µM in the assay on SNB-19 CNS. Besides, the TGI was 3.09 µM with MALME-3M melanoma; 2.92 µM in the assay on OVCAR-4 ovarian; 3.02 µM in the assay with SK-MEL-28 melanoma; 2.92 µM with SK-MEL-5 melanoma; 2.79 µM with SNB-19 CNS.
`CC(Oc1ccc2c(=O)cc(-c3ccccc3)oc2c1)C(=O)O` (stereo not given): the TGI in the assay on K-562 leukemia, with M14 melanoma, with MALME-3M melanoma, in the assay on OVCAR-4 ovarian, with SK-MEL-28 melanoma and in the assay with SK-MEL-5 melanoma was over 100 µM in each case. Besides, the TGI in the assay with SK-OV-3 ovarian, in the assay with SNB-19 CNS and with U251 CNS was over 100 µM throughout.
For `CC(=O)OC(C)(C)C[N+](=O)[O-]`, the TGI with K-562 leukemia, with M14 melanoma, in the assay on MALME-3M melanoma, in the assay with OVCAR-4 ovarian, with SK-MEL-28 melanoma and in the assay with SK-OV-3 ovarian was over 100 µM each time. Moreover, the TGI with SNB-19 CNS and with U251 CNS was over 100 µM each time.
Regarding `c1ccc(N2CCN(CCCN3CCc4c([nH]c5ccccc45)C3c3cccnc3)CC2)cc1` (stereo not given), the TGI is over 65.6 µM in the assay with K-562 leukemia; 59.8 µM in the assay on M14 melanoma; over 77.3 µM in the assay on MALME-3M melanoma; over 100 µM in the assay on OVCAR-4 ovarian; over 100 µM in the assay with SK-MEL-28 melanoma; over 100 µM with SK-MEL-5 melanoma. Further, the TGI with SK-OV-3 ovarian was over 100 µM; in the assay on SNB-19 CNS, over 100 µM; in the assay on U251 CNS, over 31.6 µM.
With `C=C1CCCC2OC(OC)CCC12` (stereo not given), the TGI in the assay with K-562 leukemia, with M14 melanoma, in the assay on MALME-3M melanoma, in the assay on OVCAR-4 ovarian, with SK-MEL-5 melanoma and in the assay on SK-OV-3 ovarian was over 100 µM in each case. Also, the TGI with SNB-19 CNS and with U251 CNS was over 100 µM each time.
As for `O=C(CC1(O)C(=O)Nc2c(Cl)cc(Cl)cc21)c1ccc([N+](=O)[O-])cc1` (stereo not given), the TGI is over 100 µM with K-562 leukemia; over 55.7 µM with M14 melanoma; over 60.7 µM in the assay on MALME-3M melanoma; 31.2 µM in the assay with OVCAR-4 ovarian; over 59.6 µM with SK-MEL-28 melanoma; over 57.3 µM in the assay on SK-MEL-5 melanoma. Besides, the TGI with SK-OV-3 ovarian, with SNB-19 CNS and in the assay on U251 CNS was over 100 µM throughout.
Consider `CCCCCCCCCCCCCP(=O)(OC)OC`, for which the TGI in the assay on K-562 leukemia came out at 45.2 µM; in the assay on M14 melanoma, 34.7 µM; with MALME-3M melanoma it was 38.3 µM; in the assay on OVCAR-4 ovarian it was 34.6 µM; with SK-MEL-28 melanoma, 39.1 µM; in the assay with SK-MEL-5 melanoma, 32.6 µM. Also, the results for the TGI in the assay on SK-OV-3 ovarian, in the assay with SNB-19 CNS and in the assay with U251 CNS were 33.3 µM, 38.6 µM and 32.9 µM, respectively.
`O=C(CO)CC(=O)C(=O)Nc1cccc(C(F)(F)F)c1`: the TGI in the assay with K-562 leukemia, in the assay with M14 melanoma, with MALME-3M melanoma, in the assay with OVCAR-4 ovarian, in the assay on SK-MEL-28 melanoma and in the assay with SK-OV-3 ovarian was over 100 µM in each case. The compound further yielded a TGI in the assay on SNB-19 CNS of over 100 µM.
As for `O=C(O)CC(S)C(=O)O.[Li+].[Sb]` (stereo not given), the GI50 was 85.3 µM in the assay with K-562 leukemia; 39.5 µM in the assay with M14 melanoma; over 100 µM in the assay on OVCAR-4 ovarian; 55.5 µM in the assay on SK-MEL-28 melanoma; 13.7 µM in the assay with SK-MEL-5 melanoma; over 100 µM with SNB-19 CNS. Besides, the GI50 with U251 CNS was 39.9 µM. Besides, the TGI with K-562 leukemia is over 100 µM; with M14 melanoma, over 100 µM; in the assay with OVCAR-4 ovarian it was over 100 µM; in the assay on SK-MEL-28 melanoma, over 100 µM; with SK-MEL-5 melanoma, 29 µM; in the assay with SNB-19 CNS it was over 100 µM. Besides, the TGI in the assay with U251 CNS was over 100 µM.
With `C=C(C)C1CC=C(C)C(O)([C@@]2(O)C[C@H](C(=C)C)CC=C2C)C1` (stereo not given in full), the TGI in the assay on K-562 leukemia was found to be 49.4 µM; in the assay with M14 melanoma it was 39.9 µM; in the assay with MALME-3M melanoma, 81.8 µM; with OVCAR-4 ovarian it was 56.2 µM; in the assay on SK-MEL-28 melanoma it was 95.9 µM; in the assay on SK-MEL-5 melanoma, 28.3 µM. The results for the TGI in the assay with SK-OV-3 ovarian, in the assay on SNB-19 CNS and in the assay with U251 CNS were 64.1 µM, over 100 µM and 34.7 µM, respectively.
Turning to `CCCCCC1CC=CC(NC(=O)OCc2ccccc2)C1/C=C/CCCC1OCCO1` (stereo not given), the TGI in the assay with K-562 leukemia, in the assay on M14 melanoma, in the assay on MALME-3M melanoma, with OVCAR-4 ovarian, with SK-MEL-28 melanoma and with SK-MEL-5 melanoma was over 100 µM each time. The TGI in the assay with SK-OV-3 ovarian, with SNB-19 CNS and in the assay on U251 CNS was over 100 µM throughout.
For the compound `CC(=O)CCn1[nH]c(=O)c(Cl)c(Cl)c1=O`, the TGI with K-562 leukemia, with M14 melanoma, in the assay on MALME-3M melanoma, in the assay with OVCAR-4 ovarian, with SK-MEL-28 melanoma and in the assay on SK-MEL-5 melanoma was over 100 µM in each case. The TGI in the assay on SNB-19 CNS worked out at 31.1 µM.
For the compound `O=C1C(c2ccccc2)=[N+]([O-])c2cc([N+](=O)[O-])ccc21`, the TGI in the assay with K-562 leukemia is 58.5 µM; in the assay with MALME-3M melanoma it was 36.1 µM; with SK-MEL-28 melanoma it was 48.4 µM; in the assay with SK-MEL-5 melanoma, 39.2 µM; in the assay with SK-OV-3 ovarian it was over 100 µM; in the assay with SNB-19 CNS it was over 100 µM. The same compound yielded a TGI with U251 CNS of over 100 µM.
